In US20240262806A1, “INHIBITORS OF NLRP3” (PTC THERAPEUTICS, INC., priority 2021, published 2024):

Test system: NLRP3 inflammasome
Assay: IL-1β Secretion Assay (NLRP3-dependent IL-1β secretion in PMA-differentiated THP-1 cells, nigericin activation, HTRF)
Type: cell-based
Details: Homo sapiens, THP-1, THP-1 cells, 100 ng/mL PMA 24 h, compound 20 h, 2.5 μM Nigericin 3 h; read-out: IC50 IL-1β Inhibition
Outline: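 IL-1β release, quantified by HTRF after nigericin activation of the NLRP3 inflammasome, was the read-out. A logistic fit of percent inhibition gave IC50.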

| SMILES | IC50 [nM] |
| --- | --- |
| COc1cc(C(F)(F)F)ccc1-c1nnc(N[C@@H]2CCCN(C)C2)n2cncc12 [Compound I-349, 1-[2-Methoxy-4-(trifluoromethyl)phenyl]-N-[(3R)-1-methyl-3-piperidyl]imidazo[1,5-d][1,2,4]triazin-4-amine] | 1 to 10 |
| OCCN1CCC[C@@H](Nc2nnc(-c3ccc(C(F)(F)F)cc3O)c3cncn23)C1 [Compound I-350] | 1 to 10 |
| COc1ccc(-c2nnc(N[C@@H]3CCCN(C)C3)c3cc(C)nn23)c(O)c1 [Compound I-351] | 10 to 100 |
| Oc1cc(C(F)(F)F)ccc1-c1nnc(N[C@@H]2CCCNC2)n2cccc12 [Compound I-352] | 1 to 10 |
| OCCN1CCC[C@@H](Nc2nnc(-c3ccc(C(F)(F)F)cc3O)c3cccn23)C1 [Compound I-353] | 1 to 10 |
| Cc1ccc(-c2nnc(N[C@@H]3CCCN(CCO)C3)n3cccc23)c(O)c1 [Compound I-354] | < 1 |
| CN1CCC[C@@H](Nc2nnc(-c3ccc(Cl)cc3O)c3cccn23)C1 [Compound I-355] | < 1 |
| CN1CCC[C@@H](Nc2nnc(-c3ccc(Cl)cc3OC(F)F)c3cccn23)C1 [Compound I-356, 1-[4-Chloro-2-(difluoromethoxy)phenyl]-N-[(3R)-1-methyl-3-piperidyl]pyrrolo[1,2-d][1,2,4]triazin-4-amine] | 1 to 10 |
| COc1ccc(-c2nnc(N[C@@H]3CCCN(C)C3)n3cccc23)c(O)c1 [Compound I-357] | 1 to 10 |
| COc1ccc(-c2nnc(N[C@@H]3CCCN(CCO)C3)n3cccc23)c(O)c1 [Compound I-358] | 1 to 10 |
| Cc1cc(O)c(-c2nnc(N[C@@H]3CCCN(C)C3)n3nc(C)cc23)c(F)c1 [Compound I-359] | < 1 |
| CCN1CCC[C@@H](Nc2nnc(-c3ccc(C(F)(F)F)cc3O)c3cncn23)C1 [Compound I-360] | < 1 |
| O[C@H]1CCC[C@@H](Nc2nnc(-c3ccc(C(F)(F)F)cc3OC(F)F)c3cccn23)C1 [Compound I-361, (1S,3R)-3-[[1-[2-(Difluoromethoxy)-4-(trifluoromethyl)phenyl]pyrrolo[1,2-d][1,2,4]triazin-4-yl]amino]cyclohexanol] | 1 to 10 |
| CO[C@H]1CCC[C@@H](Nc2nnc(-c3ccc(C(F)(F)F)cc3OC(F)F)c3cccn23)C1 [Compound I-362] | 10 to 100 |
| Cc1cc2c(-c3c(O)cc(C(F)(F)F)cc3F)nnc(N[C@@H]3CCCN(C)C3)n2n1 [Compound I-363] | < 1 |
| CC(C)(O)CN1CCC[C@@H](Nc2nnc(-c3ccc(C(F)(F)F)cc3O)c3cccn23)C1 [Compound I-364] | 1 to 10 |
| Oc1cc(OC(F)(F)F)ccc1-c1nnc(N[C@@H]2CCCNC2)n2cccc12 [Compound I-365] | 10 to 100 |
| CN1CCC[C@@H](Nc2nnc(-c3ccc(OC(F)(F)F)cc3O)c3cccn23)C1 [Compound I-366] | 1 to 10 |
| Cc1ccc(-c2nnc(N[C@@H]3CCCN(CC(C)(C)O)C3)n3cccc23)c(O)c1 [Compound I-367] | 10 to 100 |
| Oc1cc(Cl)ccc1-c1nnc(N[C@@H]2CCCN(CC(F)F)C2)n2cccc12 [Compound I-368] | 10 to 100 |
| OCCN1CCC[C@@H](Nc2nnc(-c3ccc(Cl)cc3O)c3cccn23)C1 [Compound I-369] | 1 to 10 |
| COc1ccc(-c2nnc(N[C@@H]3CCCN(C)C3)n3cccc23)c(C(F)(F)F)c1 [Compound I-370] | 1 to 10 |
| CCN1CCC[C@@H](Nc2nnc(-c3ccc(C(F)(F)F)cc3C(F)(F)F)c3cccn23)C1 [Compound I-371] | < 1 |
| CN1CCC[C@@H](Nc2nnc(-c3c(O)cc(C(F)(F)F)cc3F)c3cccn23)C1 [Compound I-372] | < 1 |
| OCCN1CCC[C@@H](Nc2nnc(-c3ccc(OC(F)(F)F)cc3O)c3cccn23)C1 [Compound I-373] | 1 to 10 |
| Cc1cc2c(-c3ccc(Br)cc3OC(F)(F)F)nnc(N[C@@H]3CCCN(C)C3)n2n1 [Compound I-374, (R)-4-(4-Bromo-2-(trifluoromethoxy)phenyl)-2-methyl-N-(1-methylpiperidin-3-yl)pyrazolo[1,5-d][1,2,4]triazin-7-amine] | 1 to 10 |
